Assay results from US7223759B2, “Antibacterial 3,5-diaminopiperidine-substituted aromatic and heteroaromatic compounds” (Anadys Pharmaceuticals, Inc., priority 2003, dated 2007).
Where two headings read alike, the source gives them in different places.

System: Escherichia coli (ATCC25922) or Staphylococcus aureus (ATCC25923)
Assay: Antibacterial MIC, microdilution method in Mueller-Hinton medium
Type: cell-based
Settings: Escherichia coli, 18 h, read-out: Potency (MIC)
Outline: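 Read after 18 h incubation at 35° C, MIC is the lowest compound level that blocked growth. Compounds were tested in duplicate over 64–0.5 μg/ml two-fold dilutions using Mueller-Hinton microdilution per NCCLS standard.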

[1] = MIC in E. coli or S. aureus, two-fold serial dilutions 64 to 0.5 μg/ml in duplicate, 18 hours of incubation at 35° C.

Row | Compound | MIC [1] | MIC
1 | COc1nc(Nc2ccc(C(=O)CC(=O)Nc3ccccc3Cl)cc2)nc(N2C[C@H](N)C[C@H](N)C2)n1.Cl [N-(2-Chloro-phenyl)-3-{4-[4-((3R,5S)-3,5-diamino-piperidin-1-yl)-6-methoxy-[1,3,5]triazin-2-ylamino]-phenyl}-3-oxo-propionamide] | < 16 µg/mL | –
2 | N[C@@H]1C[C@H](N)CN(c2nc(Nc3ccc(C(=O)CC(=O)Nc4ccccc4Cl)cc3)nc(N3C[C@@H](O)[C@@H](O)C3)n2)C1 [N-(2-Chloro-phenyl)-3-{4-[4-((3S,5R)-3,5-diamino-piperidin-1-yl)-6-((3R,4S)-3,4-dihydroxy-pyrrolidin-1-yl)-[1,3,5]triazin-2-ylamino]-phenyl}-3-oxo-propionamide] | – | < 64 µg/mL
3 | C=CCOC1OC(CO)C(O)C(O)C1Nc1nc(N2C[C@H](N)C[C@H](N)C2)nc(N2C[C@H](N)C[C@H](N)C2)n1.Cl (stereo partly drawn) [N-(2-allyloxy-4,5-dihydroxy-6-hydroxymethyl-tetrahydro-pyran-3-yl)-4,6-Bis-((3R,5S)-3,5-diamino-piperidin-1-yl)-[1,3,5]triazine-2-amine] | > 64 µg/mL | –
4 | COc1cc2c(cc1Nc1nc(N3C[C@H](N)C[C@H](N)C3)nc(N3C[C@H](N)C[C@H](N)C3)n1)oc1ccccc12 [N-(2-methoxy-dibenzofuran-3-yl)-4,6-Bis-((3R,5S)-3,5-diamino-piperidin-1-yl)-[1,3,5]triazine-2-amine] | – | < 64 µg/mL
5 | O=C(Nc1ccccc1)c1ccccc1Nc1nc(N2CCCCC2)nc(N2CCCCC2)n1 [N-(2-phenylcarbamoyl-phenyl)-44,6-Bis-((3R,5S)-3,5-diamino-piperidin-1-yl)-[1,3,5]triazine-2-amine] | > 64 µg/mL | –
6 | N[C@@H]1C[C@H](N)CN(c2nc(Nc3ccccc3N3CCCCC3)nc(N3C[C@H](N)C[C@H](N)C3)n2)C1 [N-(2-piperidin-1-yl-phenyl)-4,6-Bis-((3R,5S)-3,5-diamino-piperidin-1-yl)-[1,3,5]triazine-2-amine] | – | > 64 µg/mL
7 | Cl.c1ccc(Nc2ccccc2Nc2nc(C3CCCCC3)nc(N3CCCCC3)n2)cc1 [N-(2-pohenylamino-phenyl)-4,6-Bis-((3R,5S)-3,5-diamino-piperidin-1-yl)-[1,3,5]triazine-2-amine] | > 64 µg/mL | –
8 | Cc1cc(C)cc(Nc2nc(N3C[C@H](N)C[C@H](N)C3)nc(N3C[C@H](N)C[C@H](N)C3)n2)c1 [N-(3,5-dimethyl-phenyl)-4,6-Bis-((3R,5S)-3,5-diamino-piperidin-1-yl)-[1,3,5]triazine-2-amine] | – | < 64 µg/mL
9 | N[C@@H]1C[C@H](N)CN(c2nc(Nc3cccc(I)c3)nc(N3C[C@H](N)C[C@H](N)C3)n2)C1 [N-(3-Iodo-phenyl)-4,6-Bis-((3R,5S)-3,5-diamino-piperidin-1-yl)-[1,3,5]triazine-2-amine] | – | < 64 µg/mL
10 | Cc1c(Cl)cccc1CNc1nc(N2C[C@H](N)C[C@H](N)C2)nc(N2C[C@H](N)C[C@H](N)C2)n1 [N-(3-chloro-2-methyl-benzyl)-4,6-Bis-((3R,5S)-3,5-diamino-piperidin-1-yl)-[1,3,5]triazine-2-amine] | – | > 64 µg/mL
11 | N[C@@H]1C[C@H](N)CN(c2nc(Nc3ccc([N+](=O)[O-])c(Cl)c3)nc(N3C[C@H](N)C[C@H](N)C3)n2)C1 [N-(3-chloro-4-nitro-phenyl)-4,6-Bis-((3R,5S)-3,5-diamino-piperidin-1-yl)-[1,3,5]triazine-2-amine] | – | < 16 µg/mL
12 | CN(C)c1cccc(Nc2nc(N3C[C@H](N)C[C@H](N)C3)nc(N3C[C@H](N)C[C@H](N)C3)n2)c1 [N-(3-dimethylamino-phenyl)-4,6-Bis-((3R,5S)-3,5-diamino-piperidin-1-yl)-[1,3,5]triazine-2-amine] | – | > 64 µg/mL
13 | C#Cc1cccc(Nc2nc(N3CCCCC3)nc(N3CCCCC3)n2)c1.Cl [N-(3-ethylnyl-phenyl)-4,6-Bis-((3R,5S)-3,5-diamino-piperidin-1-yl)-[1,3,5]triazine-2-amine] | > 64 µg/mL | –
14 | N[C@@H]1C[C@H](N)CN(c2nc(Nc3ccc(C(=O)Nc4ccc(S(=O)(=O)Nc5ccc6cn[nH]c6c5)cc4)c(O)c3)nc(N3C[C@H](N)C[C@H](N)C3)n2)C1 [N-(3-hydroxy-4-[4-(1H-indazol-6-ylsulfamoyl)-phenylcarbamoyl]-phenyl)-4,6-Bis-((3R,5S)-3,5-diamino-piperidin-1-yl)-[1,3,5]triazine-2-amine] | – | < 64 µg/mL
15 | CC(C)C(=O)Nc1ccc(Nc2nc(N3C[C@H](N)C[C@H](N)C3)nc(N3C[C@H](N)C[C@H](N)C3)n2)cc1O [N-(3-hydroxy-4-isobutyrylamino-phenyl)-4,6-Bis-((3R,5S)-3,5-diamino-piperidin-1-yl)-[1,3,5]triazine-2-amine] | > 64 µg/mL | –
16 | N[C@@H]1C[C@H](N)CN(c2nc(Nc3ccc(NC(=O)Cc4ccccc4)c(O)c3)nc(N3C[C@H](N)C[C@H](N)C3)n2)C1 [N-(3-hydroxy-4-phenylacetylamino-phenyl)-4,6-Bis-((3R,5S)-3,5-diamino-piperidin-1-yl)-[1,3,5]triazine-2-amine] | < 64 µg/mL | –
17 | CCC(=O)Nc1ccc(Nc2nc(N3C[C@H](N)C[C@H](N)C3)nc(N3C[C@H](N)C[C@H](N)C3)n2)cc1O [N-(3-hydroxy-4-propionylamino-phenyl)-4,6-Bis-((3R,5S)-3,5-diamino-piperidin-1-yl)-[1,3,5]triazine-2-amine] | < 64 µg/mL | –
18 | N[C@@H]1C[C@H](N)CN(c2nc(Nc3cccc(CO)c3)nc(N3C[C@H](N)C[C@H](N)C3)n2)C1 [N-(3-hydroxymethyl-phenyl)-4,6-Bis-((3R,5S)-3,5-diamino-piperidin-1-yl)-[1,3,5]triazine-2-amine] | – | > 64 µg/mL
19 | N[C@@H]1C[C@H](N)CN(c2nc(NCCCn3ccnc3)nc(N3C[C@H](N)C[C@H](N)C3)n2)C1 [N-(3-imidazol-1-yl-propyl)-4,6-Bis-((3R,5S)-3,5-diamino-piperidin-1-yl)-[1,3,5]triazine-2-amine] | – | > 64 µg/mL
20 | Cc1cc(Nc2nc(N3C[C@H](N)C[C@H](N)C3)nc(N3C[C@H](N)C[C@H](N)C3)n2)ccc1[N+](=O)[O-] [N-(3-methyl-4-nitro-phenyl)-4,6-Bis-((3R,5S)-3,5-diamino-piperidin-1-yl)-[1,3,5]triazine-2-amine] | – | < 64 µg/mL
21 | CNC(=S)NNc1nc(N2C[C@H](N)C[C@H](N)C2)nc(N2C[C@H](N)C[C@H](N)C2)n1 [N-(3-methyl-thioureido)-4,6-Bis-((3R,5S)-3,5-diamino-piperidin-1-yl)-[1,3,5]triazine-2-amine] | – | > 64 µg/mL
22 | N[C@@H]1C[C@H](N)CN(c2nc(Nc3cccc([N+](=O)[O-])c3)nc(N3C[C@H](N)C[C@H](N)C3)n2)C1 [N-(3-nitro-phenyl)-4,6-Bis-((3R,5S)-3,5-diamino-piperidin-1-yl)-[1,3,5]triazine-2-amine] | – | > 64 µg/mL
23 | N[C@@H]1C[C@H](N)CN(c2nc(Nc3cccc(OC(F)(F)F)c3)nc(N3C[C@H](N)C[C@H](N)C3)n2)C1 [N-(3-trifluoromethoxy-phenyl)-4,6-Bis-((3R,5S)-3,5-diamino-piperidin-1-yl)-[1,3,5]triazine-2-amine] | > 64 µg/mL | –

More lines, main results first:

Row | MIC [1] | Compound | MIC
24 | > 64 µg/mL | Cl.N[C@@H]1C[C@H](N)CN(c2nc(Nc3ccccc3F)nc(N3C[C@H](N)C[C@H](N)C3)n2)C1 [N-(2-fluoro-phenyl)-4,6-Bis-((3R,5S)-3,5-diamino-piperidin-1-yl)-[1,3,5]triazine-2-amine] | –
25 | > 64 µg/mL | N[C@@H]1C[C@H](N)CN(c2nc(Nc3ccccc3O)nc(N3C[C@H](N)C[C@H](N)C3)n2)C1 [N-(2-hydroxy-phenyl)-4,6-Bis-((3R,5S)-3,5-diamino-piperidin-1-yl)-[1,3,5]triazine-2-amine] | –
26 | > 64 µg/mL | N[C@@H]1C[C@H](N)CN(c2nc(Nc3ccccc3N3CCOCC3)nc(N3C[C@H](N)C[C@H](N)C3)n2)C1 [N-(2-morpholin-44-yl-phenyl)-4,6-Bis-((3R,5S)-3,5-diamino-piperidin-1-yl)-[1,3,5]triazine-2-amine] | –
27 | < 64 µg/mL | Cl.N[C@@H]1C[C@H](N)CN(c2nc(Nc3ccccc3-n3cccc3)nc(N3C[C@H](N)C[C@H](N)C3)n2)C1 [N-(2-pyrrol-1-yl-phenyl)-4,6-Bis-((3R,5S)-3,5-diamino-piperidin-1-yl)-[1,3,5]triazine-2-amine] | –
28 | > 64 µg/mL | Cl.N[C@@H]1C[C@H](N)CN(c2nc(Nc3ccccc3S(N)(=O)=O)nc(N3C[C@H](N)C[C@H](N)C3)n2)C1 [N-(2-sulfamoyl-phenyl)-4,6-Bis-((3R,5S)-3,5-diamino-piperidin-1-yl)-[1,3,5]triazine-2-amine] | –
29 | > 64 µg/mL | N[C@@H]1C[C@H](N)CN(c2nc(Nc3ccccc3S(N)(=O)=O)nc(N3C[C@H](N)C[C@H](N)C3)n2)C1 [N-(2-sulfamoyl-phenyl)-4,6-Bis-((3R,5S)-3,5-diamino-piperidin-1-yl)-[1,3,5]triazine-2-amine] | –
30 | < 64 µg/mL | Cl.N[C@@H]1C[C@H](N)CN(c2nc(Nc3ccc(Cl)c(Cl)c3)nc(N3C[C@H](N)C[C@H](N)C3)n2)C1 [N-(3,4-dichloro-phenyl)-4,6-Bis-((3R,5S)-3,5-diamino-piperidin-1-yl)-[1,3,5]triazine-2-amine] | –
31 | < 64 µg/mL | Cc1ccc(Nc2nc(N3C[C@H](N)C[C@H](N)C3)nc(N3C[C@H](N)C[C@H](N)C3)n2)cc1C.Cl [N-(3,4-dimethyl-phenyl)-4,6-Bis-((3R,5S)-3,5-ddiamino-piperidin-1-yl)-[1,3,5]triazine-2-amine] | –
32 | < 64 µg/mL | Cl.N[C@@H]1C[C@H](N)CN(c2nc(Nc3cccc(Br)c3)nc(N3C[C@H](N)C[C@H](N)C3)n2)C1 [N-(3-bromo-phenyl)-4,6-Bis-((3R,5S)-3,5-diamino-piperidin-1-yl)-[1,3,5]triazine-2-amine] | –
33 | < 64 µg/mL | CSc1cccc(Nc2nc(N3C[C@H](N)C[C@H](N)C3)nc(N3C[C@H](N)C[C@H](N)C3)n2)c1.Cl [N-(3-methyylsulfanyl-phenyl)-4,6-Bis-((3R,5S)-3,5-diamino-piperidin-1-yl)-[1,3,5]triazine-2-amine] | –
